Legend:
[1] = tested on: anti-peptide IgG in plasma; assay: Test Example 4: peptide-specific IgG titer pre and post vaccination, bead-based multiplexed Luminex assay; type: in vivo, human; settings: for Pre-vaccination IgG Negative (number of patients) / Pre-vaccination IgG Positive (number of patients): cut off 10 FIU; for Post vaccination IgG: number of (positive) patients among vaccinated: positive IgG response; for Pre-vaccination IgG Negative patients: number of 2,588 patients below 10 FIU; for Pre-vaccination IgG Positive patients: number of 2,588 patients with ≥10 FIU; for Post vaccination IgG: (positive) patients: number of vaccinated patients with positive IgG response; for Correlation between immune responses and OS: Negative (mOS): patients with negative post-vaccination IgG response to the peptide; for Correlation between immune responses and OS: Positive (mOS): patients with positive post-vaccination IgG response to the peptide; for positive rate of patients showing ≥10 FIU, pre-vaccination peptide-specific IgG: 2,588 patients; for positive immune responses post-vaccination (positive of vaccinated cases): patients who completed at least the first cycle
Procedure: As described previously, IgG titer specific to the antigen peptides in plasma was measured by bead-based multiplexed Luminex assay (Luminex, Austin, Tex.) before and after vaccination, i.e., at the end of each cycle or at the end of the clinical trial (Non-Patent Literature 4). In brief, 30 mL of peripheral blood was obtained before and after vaccination. Plasma was incubated with 100 μL of peptide-coupled color-coded beads for 2 hours at 25° C. on a plate shaker. After the incubation, the resultant mixture was washed with a vacuum manifold apparatus and incubated with 100 μL of biotinylated goat anti-human IgG (gamma chain-specific; Vector Laboratories, Burlingame, Calif.) for 1 hour at 25° C. on a plate shaker. The plate was then washed, followed by addition of 100 μL of streptavidin-PE (Life Technologies) to each well, and incubation for 30 minutes at 25° C. on a plate shaker. The resultant beads were washed 4 times, followed by addition of 100 μL of Tween-PBS to each well, and detection of fluorescence intensity units (FIU) on the beads using the Luminex system. The cutoff values of anti-peptide IgG were set to 10 FIU in 100-fold diluted samples.
Pre-vaccination peptide-specific IgG titers to 31 peptides were measured using a Luminex system. As a detectable IgG level, 10 FIU was employed as the cut off level, as reported previously (Noguchi M, et al., Cancer Immunol Immunother. 2013 May; 62(5): 919-29; Sasada T, et al., Current Medicinal Chemistry. 21: 2332-2345, 2014; Kibe S, et al., Cancer Immunology Research 2014; 2(12): 1154-62).
Post-vaccination lgG titers were measured at the ends of the first cycle and the second cycle.

cancer patients = assay: Test Example 4: correlation between vaccination with individual peptides (or peptide sets) and OS, Cox proportional hazards regression; type: in vivo, human; settings: for HR: Cox proportional hazards regression, OS; for Correlation between immune responses and OS: Negative (mOS) / Correlation between immune responses and OS: Positive (mOS): Table 20, <64% neutrophil and ≥26% lymphocyte; for Correlation between immune responses and OS: Negative (mOS): vaccinated patients with negative IgG response; for Correlation between immune responses and OS: Positive (mOS): vaccinated patients with positive IgG response
Procedure: The Student's t-test and the chi-square test were used to compare quantitative and categorical variables, respectively. OS was calculated as the time in months from the date of clinical trial enrollment to death or to the date of last contact. Time-to-event endpoints were analyzed using the Kaplan-Meier method, and between-group comparison for OS was conducted using the log-rank test. Clinical efficacy of the individual peptides for OS was evaluated by univariate and multivariate analyses with the Cox proportional hazards regression model, and HR and 95% CI were calculated. All reported p-values were two-sided, and p-values less than 0.05 were considered significant. JMP version 12 or SAS version 9.4 software (SAS Institute Inc., Cary, N.C.) was used to perform all analyses.
Correlation levels of the 31 peptides for OS were evaluated by the Cox proportional hazards regression model.
Similarly, in the 2,085 advanced cancer patients (stage IV+recurrence) and the 503 non-advanced cancer patients (I-III stages) correlation levels of the 31 peptides for OS were evaluated by the Cox proportional hazards regression model. […]

[2] = Table 20, patients showing both <64% neutrophil and ≥26% lymphocyte
[3] = patients showing detectable levels
[4] = patients showing positive responses
[5] = Table 18, all 2,588 cases, vaccinated vs non-vaccinated
[6] = Table 18, all 2,588 cases, median OS of patients under PPV containing the peptide
[7] = Table 18, all 2,588 cases, median OS of patients under PPV not containing the peptide
[8] = Table 19, 2,085 advanced cancer patients (stage IV+recurrence)
[9] = Table 19, 2,085 advanced cancer patients (stage IV+recurrence), PPV containing the peptide
[10] = Table 19, 2,085 advanced cancer patients (stage IV+recurrence), PPV not containing the peptide
[11] = Table 21, patients showing both <64% neutrophil and ≥26% lymphocyte
[12] = Table 21, patients showing both <64% neutrophil and ≥26% lymphocyte, PPV containing the peptide
[13] = Table 21, patients showing both <64% neutrophil and ≥26% lymphocyte, PPV not containing the peptide
[14] = 2,085 advanced cancer patients (stage IV+recurrence)

Sequence | Post vaccination IgG Median (FIU) [1, 2] | Pre-vaccination IgG Median (FIU) [1, 2] | Pre-vaccination IgG Negative (number of patients) [1, 2] | Pre-vaccination IgG Positive (number of patients) [1, 2] | Post vaccination IgG: number of (positive) patients among vaccinated [1, 2] | Pre-vaccination IgG Negative patients [1] | Pre-vaccination IgG Positive patients [1] | Post vaccination IgG: (positive) patients [1] | Pre-vaccination IgG Median (FIU) [1, 3] | Post vaccination IgG Median (FIU) [1, 4] | Correlation between immune responses and OS: Negative (mOS) [1] | Correlation between immune responses and OS: Positive (mOS) [1] | HR (cancer patients; [5]) | Vaccinate cases (mOS) (cancer patients; [6]) | Non-vaccinate cases (mOS) (cancer patients; [7]) | HR (cancer patients; [8]) | Vaccinate cases (mOS) (cancer patients; [9]) | Non-vaccinate cases (mOS) (cancer patients; [10]) | Correlation between immune responses and OS: Negative (mOS) (cancer patients) | Correlation between immune responses and OS: Positive (mOS) (cancer patients) | further results
RLAEYQAYI (listed as Homo sapiens) [SART3-309] | 6,009 FIU | 33 FIU | 253 | 813 | 154(99) | 667 | 1,921 | 328(158) | 35 FIU | 3,070 FIU | 10.5 months | 21.4 months | 0.9 | 328(12.1) M | 722(11.1) M | 0.9 | 259(11.6) M | 603(9.8) M | 10.4 months | 28.9 months | HR (cancer patients; [11]): 0.9; Vaccinate cases (mOS) (cancer patients; [12]): 154(19.0) M; Non-vaccinate cases (mOS) (cancer patients; [13]): 280(15.6) M
LYCESVHNF (listed as Homo sapiens) [PAP-213] | 15,379 FIU | 33 FIU | 489 | 577 | 121(94) | 1,166 | 1,422 | 279(196) | 33 FIU | 14,912 FIU | 7.0 months | 21.7 months | 0.9 | 279(16.6) M | 1271(11.4) M | 0.8 | 228(14.9) M | 1018(10.0) M | 11.3 months | 28.1 months | median OS of non-vaccinated cases (cancer patients; [14]): 10 months; median OS of vaccinated cases (cancer patients; [14]): 14.9 months; HR (cancer patients; [11]): 0.9; Vaccinate cases (mOS) (cancer patients; [12]): 121(23.7) M; Non-vaccinate cases (mOS) (cancer patients; [13]): 504(17.9) M
AYDFLYNYL (listed as Homo sapiens) [SART2-161] | 775 FIU | 27 FIU | 699 | 367 | 70(26) | 1,641 | 947 | 195(61) | 29 FIU | 312 FIU | 12.6 months | 20.6 months | 1.0 | 195(12.3) M | 13,552(11.9) M | 0.9 | 156(10.7) M | 1090(10.4) M | 14.4 months | 26.7 months | HR (cancer patients; [11]): 1.1; Vaccinate cases (mOS) (cancer patients; [12]): 70(17.4) M; Non-vaccinate cases (mOS) (cancer patients; [13]): 555(18.4) M
DYSARWNEI (listed as Homo sapiens) [SART2-93] | 8,633 FIU | 64 FIU | 141 | 925 | 467(183) | 340 | 2,248 | 1137(362) | 66 FIU | 3,435 FIU | 12.3 months | 21.7 months | 0.9 | 1,137(12.3) M | 413(11.5) M | 1.0 | 906(10.7) M | 340(10.2) M | 17.3 months | 24.7 months | positive rate of patients showing ≥10 FIU, pre-vaccination peptide-specific IgG [1]: 87%; HR (cancer patients; [11]): 1.0; Vaccinate cases (mOS) (cancer patients; [12]): 467(19.0) M; Non-vaccinate cases (mOS) (cancer patients; [13]): 158(17.6) M
KYVGIEREM (listed as Homo sapiens) [EZH2-735] | 20,673 FIU | 23 FIU | 837 | 229 | 31(25) | 2,030 | 558 | 69(51) | 23 FIU | 17,691 FIU | 5.3 months | 24.7 months | 0.9 | 69(13.3) M | 1,481(11.9) M | 0.9 | 53(11.9) M | 1193(10.4) M | 6.7 months | 26.7 months | positive immune responses post-vaccination (positive of vaccinated cases) [1]: 51 of 69; HR (cancer patients; [11]): 0.7; Vaccinate cases (mOS) (cancer patients; [12]): 31(26.5) M; Non-vaccinate cases (mOS) (cancer patients; [13]): 594(18.0) M
DVWSFGILL (listed as Homo sapiens) [Lck-422] | 446 FIU | 33 FIU | 945 | 121 | 33(10) | 2,272 | 316 | 92(20) | 33 FIU | 436 FIU | 11.7 months | 18.5 months | 1.2 | 92(12.0) M | 1,849(11.4) M | 1.1 | 83(11.7) M | 1493(10.2) M | 15.6 months | 18.8 months | positive rate of patients showing ≥10 FIU, pre-vaccination peptide-specific IgG [1]: 12%; positive immune responses post-vaccination (positive of vaccinated cases) [1]: 20 of 92; HR (cancer patients; [11]): 1.1; Vaccinate cases (mOS) (cancer patients; [12]): 33(15.6) M; Non-vaccinate cases (mOS) (cancer patients; [13]): 775(17.5) M
